From the Kinase Knowledgebase extract (Sharma et al. 2016)

What follows are compounds tested against PIK3CD (Human) (UniProt O00329) (assay: Enzyme Assay).
Sequence of PIK3CD (Human) (O00329 whole entry, looked up): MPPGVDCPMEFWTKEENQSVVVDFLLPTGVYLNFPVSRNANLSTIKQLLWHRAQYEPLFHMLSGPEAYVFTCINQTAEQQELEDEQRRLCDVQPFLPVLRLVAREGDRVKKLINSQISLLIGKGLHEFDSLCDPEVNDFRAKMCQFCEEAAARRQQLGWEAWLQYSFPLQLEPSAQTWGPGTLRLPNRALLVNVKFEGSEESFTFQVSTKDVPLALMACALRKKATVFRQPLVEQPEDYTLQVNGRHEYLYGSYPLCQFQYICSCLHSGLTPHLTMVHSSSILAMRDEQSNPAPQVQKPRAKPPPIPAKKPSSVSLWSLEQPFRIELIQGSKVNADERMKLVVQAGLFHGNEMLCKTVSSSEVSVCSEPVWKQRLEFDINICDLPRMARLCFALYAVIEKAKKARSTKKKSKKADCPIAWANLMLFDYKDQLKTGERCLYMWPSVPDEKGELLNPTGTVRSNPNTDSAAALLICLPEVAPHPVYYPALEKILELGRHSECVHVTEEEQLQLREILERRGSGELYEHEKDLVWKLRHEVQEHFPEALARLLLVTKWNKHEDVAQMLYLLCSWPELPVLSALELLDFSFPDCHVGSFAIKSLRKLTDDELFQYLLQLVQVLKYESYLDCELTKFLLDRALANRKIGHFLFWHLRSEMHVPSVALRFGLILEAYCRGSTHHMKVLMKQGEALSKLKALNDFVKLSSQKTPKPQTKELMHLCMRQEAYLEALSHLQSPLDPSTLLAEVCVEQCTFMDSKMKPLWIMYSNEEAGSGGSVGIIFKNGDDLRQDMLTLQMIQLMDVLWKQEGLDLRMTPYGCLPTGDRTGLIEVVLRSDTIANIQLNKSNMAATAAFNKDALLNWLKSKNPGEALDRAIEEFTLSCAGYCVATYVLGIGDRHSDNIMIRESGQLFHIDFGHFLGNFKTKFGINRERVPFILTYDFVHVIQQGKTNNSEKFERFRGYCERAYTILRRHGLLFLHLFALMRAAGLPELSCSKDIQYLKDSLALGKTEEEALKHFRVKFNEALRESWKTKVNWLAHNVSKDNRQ

| Structure (SMILES) | IC50 |
| --- | --- |
| CSCC[C@H](N)C(=O)N1CCN(c2nc(N3CCOCC3)nc(-n3c(C(F)F)nc4ccccc43)n2)CC1 | 2.95 µM |
| Cc1cc(C(C)Nc2ccccc2)c2nc(N3CCOCC3)cc(=O)n2c1 (configuration not stated) | 0.376 µM |
| CCC(C)[C@H](N)C(=O)N1CCN(c2nc(N3CCOCC3)nc(-n3c(C(F)F)nc4ccccc43)n2)CC1 (some centres not stated) | 1 µM |
| O=C(C1CCNCC1)N1CCN(c2nc(-c3cccc(O)c3)nc(N3CCOCC3)n2)CC1 | 0.33 µM |
| NCCCC(=O)N1CCN(c2nc(N3CCOCC3)nc(-n3c(C(F)F)nc4ccccc43)n2)CC1 | 0.077 µM |
| O=C(C[C@H]1CCCN1)N1CCN(c2nc(-c3cccc(O)c3)nc(N3CCOCC3)n2)CC1 | 0.026 µM |
| C[C@H](N)CC(=O)N1CCN(c2nc(N3CCOCC3)nc(-n3c(C(F)F)nc4ccccc43)n2)CC1 | 0.11 µM |

Further lines, results first:

| IC50 | Structure (SMILES) |
| --- | --- |
| 17 µM | N[C@H](CC(=O)N1CCN(c2nc(-c3cccc(O)c3)nc(N3CCOCC3)n2)CC1)Cc1ccccc1 |
| 1.3 µM | C[C@@H](N)CC(=O)N1CCN(c2nc(-c3cccc(O)c3)nc(N3CCOCC3)n2)CC1 |
| 8.9 µM | N[C@@H](Cc1ccccc1)C(=O)N1CCN(c2nc(-c3cccc(O)c3)nc(N3CCOCC3)n2)CC1 |
| 2.8 µM | N[C@H](CC(=O)N1CCN(c2nc(N3CCOCC3)nc(-n3c(C(F)F)nc4ccccc43)n2)CC1)Cc1ccccc1 |
| 9.1 µM | CC(C)C[C@H](N)CC(=O)N1CCN(c2nc(-c3cccc(O)c3)nc(N3CCOCC3)n2)CC1 |

The compounds below were run against PIK3CB (Human) (UniProt P42338) (assay: Enzyme Assay).
Sequence of PIK3CB (Human) (P42338 whole entry, looked up): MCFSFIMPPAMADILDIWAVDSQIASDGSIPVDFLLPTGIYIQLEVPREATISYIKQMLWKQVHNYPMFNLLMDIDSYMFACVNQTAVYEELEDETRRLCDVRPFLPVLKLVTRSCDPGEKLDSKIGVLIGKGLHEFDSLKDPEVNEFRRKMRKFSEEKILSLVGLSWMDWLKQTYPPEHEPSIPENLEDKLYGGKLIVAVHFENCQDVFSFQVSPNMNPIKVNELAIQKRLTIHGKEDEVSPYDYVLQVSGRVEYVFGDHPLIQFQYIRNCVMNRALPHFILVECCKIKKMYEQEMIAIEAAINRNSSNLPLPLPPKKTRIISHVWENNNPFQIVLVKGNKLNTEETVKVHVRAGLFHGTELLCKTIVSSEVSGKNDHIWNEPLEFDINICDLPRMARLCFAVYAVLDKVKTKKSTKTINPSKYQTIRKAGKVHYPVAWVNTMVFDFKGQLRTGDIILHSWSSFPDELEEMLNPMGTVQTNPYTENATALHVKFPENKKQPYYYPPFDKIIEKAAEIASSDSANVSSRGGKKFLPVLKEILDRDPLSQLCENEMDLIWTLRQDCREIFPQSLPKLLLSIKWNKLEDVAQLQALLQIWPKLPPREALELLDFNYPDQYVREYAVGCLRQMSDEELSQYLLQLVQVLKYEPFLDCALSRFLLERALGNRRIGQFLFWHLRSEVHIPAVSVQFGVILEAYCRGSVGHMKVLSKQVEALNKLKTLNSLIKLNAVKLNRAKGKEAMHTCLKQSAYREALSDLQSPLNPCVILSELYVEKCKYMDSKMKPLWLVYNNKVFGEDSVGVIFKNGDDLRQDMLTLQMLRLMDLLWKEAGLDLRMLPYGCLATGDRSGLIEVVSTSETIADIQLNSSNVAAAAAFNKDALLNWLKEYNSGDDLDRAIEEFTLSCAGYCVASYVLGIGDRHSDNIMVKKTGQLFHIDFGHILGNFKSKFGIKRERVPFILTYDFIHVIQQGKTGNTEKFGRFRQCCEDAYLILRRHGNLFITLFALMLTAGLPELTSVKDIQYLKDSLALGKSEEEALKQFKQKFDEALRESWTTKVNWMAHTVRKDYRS

| Structure (SMILES) | IC50 |
| --- | --- |
| CSCC[C@H](N)C(=O)N1CCN(c2nc(N3CCOCC3)nc(-n3c(C(F)F)nc4ccccc43)n2)CC1 | 0.483 µM |
| CCC(C)[C@H](N)C(=O)N1CCN(c2nc(N3CCOCC3)nc(-n3c(C(F)F)nc4ccccc43)n2)CC1 (some centres not stated) | 0.067 µM |
| O=C(C1CCNCC1)N1CCN(c2nc(-c3cccc(O)c3)nc(N3CCOCC3)n2)CC1 | 3.2 µM |
| NCCCC(=O)N1CCN(c2nc(N3CCOCC3)nc(-n3c(C(F)F)nc4ccccc43)n2)CC1 | 0.081 µM |
| O=C(C[C@H]1CCCN1)N1CCN(c2nc(-c3cccc(O)c3)nc(N3CCOCC3)n2)CC1 | 1.6 µM |
| C[C@H](N)CC(=O)N1CCN(c2nc(N3CCOCC3)nc(-n3c(C(F)F)nc4ccccc43)n2)CC1 | 1.3 µM |

Continued, values first:

| IC50 | Structure (SMILES) |
| --- | --- |
| 1.8 µM | N[C@H](CC(=O)N1CCN(c2nc(-c3cccc(O)c3)nc(N3CCOCC3)n2)CC1)Cc1ccccc1 |
| 78 µM | N[C@H](Cc1ccccc1)C(=O)N1CCN(c2nc(N3CCOCC3)nc(-n3c(C(F)F)nc4ccccc43)n2)CC1 |
| 1.7 µM | C[C@@H](N)CC(=O)N1CCN(c2nc(-c3cccc(O)c3)nc(N3CCOCC3)n2)CC1 |
| 0.19 µM | N[C@@H](Cc1ccccc1)C(=O)N1CCN(c2nc(-c3cccc(O)c3)nc(N3CCOCC3)n2)CC1 |
| 7.1 µM | N[C@H](CC(=O)N1CCN(c2nc(N3CCOCC3)nc(-n3c(C(F)F)nc4ccccc43)n2)CC1)Cc1ccccc1 |
| 19 µM | CC(C)C[C@H](N)CC(=O)N1CCN(c2nc(-c3cccc(O)c3)nc(N3CCOCC3)n2)CC1 |

Each compound was assayed against PIK3CG (human) (UniProt P48736) (assay: Enzyme Assay).
Sequence of PIK3CG (human) (P48736 whole entry, looked up): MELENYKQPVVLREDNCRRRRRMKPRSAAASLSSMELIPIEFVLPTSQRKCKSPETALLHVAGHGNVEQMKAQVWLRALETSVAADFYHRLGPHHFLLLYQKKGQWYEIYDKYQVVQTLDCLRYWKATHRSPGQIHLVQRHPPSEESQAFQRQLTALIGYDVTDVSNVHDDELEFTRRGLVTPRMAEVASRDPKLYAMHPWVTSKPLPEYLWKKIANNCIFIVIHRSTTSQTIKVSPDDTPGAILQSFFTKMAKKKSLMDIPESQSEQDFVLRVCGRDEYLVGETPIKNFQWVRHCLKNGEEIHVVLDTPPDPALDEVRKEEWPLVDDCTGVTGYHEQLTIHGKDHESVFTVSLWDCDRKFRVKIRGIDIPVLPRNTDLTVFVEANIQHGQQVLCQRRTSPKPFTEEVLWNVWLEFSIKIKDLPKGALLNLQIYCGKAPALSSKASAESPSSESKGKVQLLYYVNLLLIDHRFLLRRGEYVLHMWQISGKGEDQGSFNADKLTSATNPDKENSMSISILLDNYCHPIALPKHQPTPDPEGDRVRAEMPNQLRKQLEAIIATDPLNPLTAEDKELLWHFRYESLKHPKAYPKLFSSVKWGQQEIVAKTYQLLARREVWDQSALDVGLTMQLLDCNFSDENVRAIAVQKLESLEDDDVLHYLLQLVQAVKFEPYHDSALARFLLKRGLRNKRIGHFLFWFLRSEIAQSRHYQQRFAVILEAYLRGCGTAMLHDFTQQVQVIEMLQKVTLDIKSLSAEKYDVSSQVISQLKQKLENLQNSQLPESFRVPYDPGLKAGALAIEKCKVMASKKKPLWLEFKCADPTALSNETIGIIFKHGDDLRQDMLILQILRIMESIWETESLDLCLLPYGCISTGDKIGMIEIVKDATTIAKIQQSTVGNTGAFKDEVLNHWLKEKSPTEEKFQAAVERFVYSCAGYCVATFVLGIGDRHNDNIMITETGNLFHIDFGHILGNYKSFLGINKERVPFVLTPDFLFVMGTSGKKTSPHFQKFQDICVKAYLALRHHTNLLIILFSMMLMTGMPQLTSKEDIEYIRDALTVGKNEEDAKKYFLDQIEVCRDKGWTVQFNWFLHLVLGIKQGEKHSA

| Structure (SMILES) | IC50 |
| --- | --- |
| CCC(C)[C@H](N)C(=O)N1CCN(c2nc(N3CCOCC3)nc(-n3c(C(F)F)nc4ccccc43)n2)CC1 (some centres not stated) | > 10 µM |
| O=C(C1CCNCC1)N1CCN(c2nc(-c3cccc(O)c3)nc(N3CCOCC3)n2)CC1 | 6.5 µM |
| NCCCC(=O)N1CCN(c2nc(N3CCOCC3)nc(-n3c(C(F)F)nc4ccccc43)n2)CC1 | 7.5 µM |
| O=C(C[C@H]1CCCN1)N1CCN(c2nc(-c3cccc(O)c3)nc(N3CCOCC3)n2)CC1 | 5.5 µM |
| C[C@H](N)CC(=O)N1CCN(c2nc(N3CCOCC3)nc(-n3c(C(F)F)nc4ccccc43)n2)CC1 | 7.5 µM |

The remaining lines, values ahead:

| IC50 | Structure (SMILES) |
| --- | --- |
| > 100 µM | N[C@H](CC(=O)N1CCN(c2nc(-c3cccc(O)c3)nc(N3CCOCC3)n2)CC1)Cc1ccccc1 |
| 58 µM | N[C@H](Cc1ccccc1)C(=O)N1CCN(c2nc(N3CCOCC3)nc(-n3c(C(F)F)nc4ccccc43)n2)CC1 |
| 16 µM | C[C@@H](N)CC(=O)N1CCN(c2nc(-c3cccc(O)c3)nc(N3CCOCC3)n2)CC1 |
| > 100 µM | N[C@@H](Cc1ccccc1)C(=O)N1CCN(c2nc(N3CCOCC3)nc(-n3c(C(F)F)nc4ccccc43)n2)CC1 |
| > 100 µM | N[C@@H](Cc1ccccc1)C(=O)N1CCN(c2nc(-c3cccc(O)c3)nc(N3CCOCC3)n2)CC1 |
| > 100 µM | N[C@H](CC(=O)N1CCN(c2nc(N3CCOCC3)nc(-n3c(C(F)F)nc4ccccc43)n2)CC1)Cc1ccccc1 |
| > 100 µM | CC(C)C[C@H](N)CC(=O)N1CCN(c2nc(-c3cccc(O)c3)nc(N3CCOCC3)n2)CC1 |

These compounds were tested against PIK3CA (human) (UniProt P42336) (assay: Enzyme Assay).
Sequence of PIK3CA (human) (P42336 whole entry, looked up): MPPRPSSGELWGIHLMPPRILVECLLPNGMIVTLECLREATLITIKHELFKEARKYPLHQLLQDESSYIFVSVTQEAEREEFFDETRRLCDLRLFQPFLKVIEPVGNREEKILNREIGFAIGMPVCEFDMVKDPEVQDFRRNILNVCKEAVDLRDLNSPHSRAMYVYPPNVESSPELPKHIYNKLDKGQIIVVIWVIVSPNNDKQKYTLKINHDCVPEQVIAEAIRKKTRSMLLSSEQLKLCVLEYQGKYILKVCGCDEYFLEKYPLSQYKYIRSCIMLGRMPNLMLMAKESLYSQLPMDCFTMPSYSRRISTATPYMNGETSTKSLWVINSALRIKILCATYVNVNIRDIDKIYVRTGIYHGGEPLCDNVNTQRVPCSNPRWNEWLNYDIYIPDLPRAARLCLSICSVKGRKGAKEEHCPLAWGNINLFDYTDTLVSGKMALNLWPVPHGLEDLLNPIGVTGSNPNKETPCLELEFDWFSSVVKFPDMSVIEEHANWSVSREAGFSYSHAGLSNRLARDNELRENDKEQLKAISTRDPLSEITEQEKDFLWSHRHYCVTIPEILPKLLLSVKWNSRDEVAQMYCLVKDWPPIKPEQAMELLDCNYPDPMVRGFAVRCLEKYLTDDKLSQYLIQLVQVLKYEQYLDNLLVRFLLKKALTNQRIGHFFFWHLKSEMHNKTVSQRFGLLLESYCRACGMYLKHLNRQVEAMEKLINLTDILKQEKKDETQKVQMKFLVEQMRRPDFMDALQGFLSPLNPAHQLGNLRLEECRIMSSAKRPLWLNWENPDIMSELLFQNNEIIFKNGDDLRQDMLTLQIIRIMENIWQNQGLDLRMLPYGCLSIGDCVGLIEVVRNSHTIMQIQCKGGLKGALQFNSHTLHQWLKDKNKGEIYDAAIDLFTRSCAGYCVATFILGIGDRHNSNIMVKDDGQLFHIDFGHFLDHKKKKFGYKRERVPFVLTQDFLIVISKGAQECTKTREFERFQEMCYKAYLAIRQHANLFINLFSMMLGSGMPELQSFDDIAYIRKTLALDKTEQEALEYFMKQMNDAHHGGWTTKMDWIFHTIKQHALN

| Structure (SMILES) | IC50 |
| --- | --- |
| CSCC[C@H](N)C(=O)N1CCN(c2nc(N3CCOCC3)nc(-n3c(C(F)F)nc4ccccc43)n2)CC1 | 13 µM |
| Cc1cc(C(C)Nc2ccccc2)c2nc(N3CCOCC3)cc(=O)n2c1 (configuration not stated) | 5.07 µM |
| O=C(C1CCNCC1)N1CCN(c2nc(-c3cccc(O)c3)nc(N3CCOCC3)n2)CC1 | 1.5 µM |
| NCCCC(=O)N1CCN(c2nc(N3CCOCC3)nc(-n3c(C(F)F)nc4ccccc43)n2)CC1 | 0.85 µM |
| O=C(C[C@H]1CCCN1)N1CCN(c2nc(-c3cccc(O)c3)nc(N3CCOCC3)n2)CC1 | 4.4 µM |
| C[C@H](N)CC(=O)N1CCN(c2nc(N3CCOCC3)nc(-n3c(C(F)F)nc4ccccc43)n2)CC1 | 3 µM |

The remaining lines, values ahead:

| IC50 | Structure (SMILES) |
| --- | --- |
| 62 µM | N[C@H](CC(=O)N1CCN(c2nc(-c3cccc(O)c3)nc(N3CCOCC3)n2)CC1)Cc1ccccc1 |
| 2.2 µM | C[C@@H](N)CC(=O)N1CCN(c2nc(-c3cccc(O)c3)nc(N3CCOCC3)n2)CC1 |
| 19 µM | N[C@@H](Cc1ccccc1)C(=O)N1CCN(c2nc(-c3cccc(O)c3)nc(N3CCOCC3)n2)CC1 |
| 26 µM | N[C@H](CC(=O)N1CCN(c2nc(N3CCOCC3)nc(-n3c(C(F)F)nc4ccccc43)n2)CC1)Cc1ccccc1 |
| 21 µM | CC(C)C[C@H](N)CC(=O)N1CCN(c2nc(-c3cccc(O)c3)nc(N3CCOCC3)n2)CC1 |
